Results from ChEMBL document CHEMBL1201861, “Genomics of Drug Sensitity in Cancer screening data, Wellcome Trust Sanger Institute”.

Columns and labels:
Experiment in all cases: cells
HCC1419 = type: functional, cell-based, Homo sapiens; settings: Homo sapiens, HCC1419;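 note: growth inhibition of human HCC1419 cells, read out as cell viability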
Description: SANGER: Inhibition of human HCC1419 cell growth in a cell viability assay.

DOK = type: functional, cell-based, Homo sapiens; settings: Homo sapiens, DOK;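 note: cell viability assay read-out, values reflect inhibition of cell growth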
Description: SANGER: Inhibition of human DOK cell growth in a cell viability assay.

HT1197 = type: functional, cell-based, Homo sapiens, HT-1197; settings: Homo sapiens, HT1197
Description: SANGER: Inhibition of human HT-1197 cell growth in a cell viability assay.

BXPC-3 = type: functional, cell-based, Homo sapiens; settings: Homo sapiens, BXPC-3;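 note: growth inhibition of human BxPC-3 cells, read out by a cell viability assay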
Description: SANGER: Inhibition of human BxPC-3 cell growth in a cell viability assay.

PANC-08-13 = type: functional, cell-based, Homo sapiens; settings: Homo sapiens, PANC-08-13;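 note: cell growth inhibition, measured with a cell viability assay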
Description: SANGER: Inhibition of human PANC-08-13 cell growth in a cell viability assay.

JAR = type: functional, cell-based, Homo sapiens; settings: Homo sapiens, JAR;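 note: growth inhibition of human JAR cells determined with a cell viability assay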
Description: SANGER: Inhibition of human JAR cell growth in a cell viability assay.

MDA-MB-231 = type: functional, cell-based, Homo sapiens; settings: Homo sapiens, MDA-MB-231
Description: SANGER: Inhibition of human MDA-MB-231 cell growth in a cell viability assay.

SW48 = type: functional, cell-based, Homo sapiens; settings: Homo sapiens, SW48;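 note: growth inhibition of SW48 cells, read out with a cell viability assay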
Description: SANGER: Inhibition of human SW48 cell growth in a cell viability assay.

DMS-114 = type: functional, cell-based, Homo sapiens; settings: Homo sapiens, DMS-114
A2780 = type: functional, cell-based, Homo sapiens; settings: Homo sapiens, A2780;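 note: growth inhibition of A2780 cells, read out with a cell viability assay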
Description: SANGER: Inhibition of human A2780 cell growth in a cell viability assay.

BFTC-905 = type: functional, cell-based, Homo sapiens; settings: Homo sapiens, BFTC-905
Description: SANGER: Inhibition of human BFTC-905 cell growth in a cell viability assay.

HuO-3N1 = type: functional, cell-based, Homo sapiens; settings: Homo sapiens, HuO-3N1;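 note: cell viability readout used to measure how strongly compounds suppress proliferation of human HuO-3N1 cells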
Description: SANGER: Inhibition of human HuO-3N1 cell growth in a cell viability assay.

COLO-680N = type: functional, cell-based, Homo sapiens; settings: Homo sapiens, COLO-680N;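 note: cell viability assay used to measure inhibition of COLO-680N cell growth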
Description: SANGER: Inhibition of human COLO-680N cell growth in a cell viability assay.

KYSE-150 cell line = type: functional, cell-based, Homo sapiens; settings: Homo sapiens, KYSE-150;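 note: growth inhibition of human KYSE-150 cells, read out with a cell viability assay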
Description: SANGER: Inhibition of human KYSE-150 cell growth in a cell viability assay.

CAL-72 = type: functional, cell-based, Homo sapiens; settings: Homo sapiens, CAL-72;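 note: cell viability assay measuring inhibition of proliferation in the CAL-72 cell line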
Description: SANGER: Inhibition of human CAL-72 cell growth in a cell viability assay.

COLO-792 = type: functional, cell-based, Homo sapiens; settings: Homo sapiens, COLO-792
Description: SANGER: Inhibition of human COLO-792 cell growth in a cell viability assay.

KYSE-450 = type: functional, cell-based; settings: Homo sapiens;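 note: cell growth inhibition measured by a viability assay in human KYSE-450 cells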
Description: SANGER: Inhibition of human KYSE-450 cell growth in a cell viability assay.

SF-268 = type: functional, cell-based, Homo sapiens; settings: Homo sapiens, SF-268;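 note: growth inhibition of SF-268 cells determined with a cell viability assay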
Description: SANGER: Inhibition of human SF268 cell growth in a cell viability assay.

HOP-62 = type: functional, cell-based, Homo sapiens; settings: Homo sapiens, HOP-62;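 note: cell growth inhibition determined with a viability assay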
Description: SANGER: Inhibition of human HOP-62 cell growth in a cell viability assay.

ES3 = type: functional, cell-based, Homo sapiens; settings: Homo sapiens, ES3;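 note: growth inhibition of ES3 cells, read out with a cell viability assay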
Description: SANGER: Inhibition of human ES3 cell growth in a cell viability assay.

OVCAR-8 = type: functional, cell-based, Homo sapiens; settings: Homo sapiens, OVCAR-8;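 note: growth inhibition of human OVCAR-8 cells, read out by a cell viability assay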
Description: SANGER: Inhibition of human OVCAR-8 cell growth in a cell viability assay.

DSH1 = type: functional, cell-based, Homo sapiens; settings: Homo sapiens, DSH1;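 note: growth inhibition of human DSH1 cells, measured with a cell viability readout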
Description: SANGER: Inhibition of human DSH1 cell growth in a cell viability assay.

SK-MEL-2 = type: functional, cell-based, Homo sapiens; settings: Homo sapiens, SK-MEL-2
Description: SANGER: Inhibition of human SK-MEL-2 cell growth in a cell viability assay.

LS-123 = type: functional, cell-based, Homo sapiens; settings: Homo sapiens, LS-123
Description: SANGER: Inhibition of human LS-123 cell growth in a cell viability assay.

H4 = type: functional, cell-based; settings: Homo sapiens
Description: SANGER: Inhibition of human H4 cell growth in a cell viability assay.

CAPAN-1 = type: functional, cell-based, Homo sapiens; settings: Homo sapiens, CAPAN-1;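 note: growth suppression of CAPAN-1 cells, read out by a cell viability assay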
Description: SANGER: Inhibition of human CAPAN-1 cell growth in a cell viability assay.

MSTO-211H = type: functional, cell-based, Homo sapiens; settings: Homo sapiens, MSTO-211H
Description: SANGER: Inhibition of human MSTO-211H cell growth in a cell viability assay.

OVCAR-4 = type: functional, cell-based, Homo sapiens; settings: Homo sapiens, OVCAR-4;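 note: growth inhibition of human OVCAR-4 cells, measured with a cell viability assay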
Description: SANGER: Inhibition of human OVCAR-4 cell growth in a cell viability assay.

ES4 = type: functional, cell-based, Homo sapiens; settings: Homo sapiens, ES4;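 note: growth inhibition of human ES4 cells, read out by a cell viability assay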
Description: SANGER: Inhibition of human ES4 cell growth in a cell viability assay.

LCLC-103H cell line = type: functional, cell-based, Homo sapiens; settings: Homo sapiens, LCLC-103H
Description: SANGER: Inhibition of human LCLC-103H cell growth in a cell viability assay.

NOS-1 = type: functional, cell-based, Homo sapiens; settings: Homo sapiens, NOS-1;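 note: growth inhibition of the human NOS-1 cell line, read out with a cell viability assay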
Description: SANGER: Inhibition of human NOS-1 cell growth in a cell viability assay.

KYSE-140 = type: functional, cell-based, Homo sapiens; settings: Homo sapiens, KYSE-140;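 note: cell viability assay measuring growth inhibition in human KYSE-140 cells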
Description: SANGER: Inhibition of human KYSE-140 cell growth in a cell viability assay.

NCI-H1793 = type: functional, cell-based, Homo sapiens; settings: Homo sapiens, NCI-H1793;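 note: cell growth inhibition, read out by a cell viability assay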
Description: SANGER: Inhibition of human NCI-H1793 cell growth in a cell viability assay.

SKG-IIIa = type: functional, cell-based, Homo sapiens; settings: Homo sapiens, SKG-IIIa;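 note: cell growth inhibition, read out with a cell viability assay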
Description: SANGER: Inhibition of human SKG-IIIa cell growth in a cell viability assay.

CTB-1 = type: functional, cell-based; settings: Homo sapiens
Description: SANGER: Inhibition of human CTB-1 cell growth in a cell viability assay.

MFH-ino = type: functional, cell-based; settings: Homo sapiens;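 note: growth inhibition of human MFH-ino cells, read out by a cell viability assay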
Description: SANGER: Inhibition of human MFH-ino cell growth in a cell viability assay.

RCC10RGB = type: functional, cell-based, Homo sapiens; settings: Homo sapiens, RCC10RGB;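 note: growth inhibition of human RCC10RGB cells, read out by a cell viability assay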
Description: SANGER: Inhibition of human RCC10RGB cell growth in a cell viability assay.

NCI-H2228 = type: functional, cell-based, Homo sapiens; settings: Homo sapiens, NCI-H2228;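 note: growth inhibition of human NCI-H2228 cells, read out by a cell viability assay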
Description: SANGER: Inhibition of human NCI-H2228 cell growth in a cell viability assay.

KM-H2 = type: functional, cell-based; settings: Homo sapiens;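 note: growth inhibition of KM-H2 cells, read out by a cell viability assay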
Description: SANGER: Inhibition of human KM-H2 cell growth in a cell viability assay.

RT-112 = type: functional, cell-based, Homo sapiens; settings: Homo sapiens, RT-112
Description: SANGER: Inhibition of human RT-112 cell growth in a cell viability assay.

HEC-1 = type: functional, cell-based, Homo sapiens; settings: Homo sapiens, HEC-1;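 note: growth inhibition of the cell line, read out with a cell viability assay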
Description: SANGER: Inhibition of human HEC-1 cell growth in a cell viability assay.

SK-MEL-28 = type: functional, cell-based; settings: Homo sapiens;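 note: growth inhibition of human SK-MEL-28 cells, read out with a cell viability assay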
Description: SANGER: Inhibition of human SK-MEL-28 cell growth in a cell viability assay.

Hs-578T = type: functional, cell-based, Homo sapiens; settings: Homo sapiens, Hs-578T
Description: SANGER: Inhibition of human Hs-578-T cell growth in a cell viability assay.

NOMO-1 = type: functional, cell-based; settings: Homo sapiens;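 note: growth inhibition of human NOMO-1 cells measured by a cell viability assay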
Description: SANGER: Inhibition of human NOMO-1 cell growth in a cell viability assay.

AU565 = type: functional, cell-based, Homo sapiens; settings: Homo sapiens, AU565;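 note: cell viability assay measuring growth inhibition of human AU565 cells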
Description: SANGER: Inhibition of human AU565 cell growth in a cell viability assay.

Panc1005 = type: functional, cell-based, Homo sapiens; settings: Homo sapiens, Panc1005;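 note: growth inhibition of human PANC-10-05 cells, measured by a cell viability assay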
Description: SANGER: Inhibition of human PANC-10-05 cell growth in a cell viability assay.

NCI-H2170 = type: functional, cell-based, Homo sapiens; settings: Homo sapiens, NCI-H2170;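 note: cell viability assay measuring growth inhibition of human NCI-H2170 cancer cells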
Description: SANGER: Inhibition of human NCI-H2170 cell growth in a cell viability assay.

HCC2157 = type: functional, cell-based; settings: Homo sapiens;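 note: growth inhibition of the cancer cell line, read out as cell viability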
Description: SANGER: Inhibition of human HCC2157 cell growth in a cell viability assay.

NCI-H2030 = type: functional, cell-based, Homo sapiens; settings: Homo sapiens, NCI-H2030;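 note: growth inhibition of human NCI-H2030 cells, read out by a cell viability assay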
Description: SANGER: Inhibition of human NCI-H2030 cell growth in a cell viability assay.

AM-38 = type: functional, cell-based, Homo sapiens; settings: Homo sapiens, AM-38;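 note: growth inhibition of AM-38 cells of human origin, read out by a cell viability assay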
Description: SANGER: Inhibition of human AM-38 cell growth in a cell viability assay.

Measured: IC50

O=c1cc(-c2cccc3c2Sc2ccccc2S3)oc(N2CCOCC2)c1 [KU-55933]
4.17 µM: HuO-3N1
5.48 µM: CAL-72
> 10 µM: all other assays above

Cc1cnc(-c2cnc(NCCNc3ccc(C#N)cn3)nc2-c2ccc(Cl)cc2Cl)[nH]1 [LADUVIGLUSIB]
> 2.56 µM: all assays above

CCOc1nc(NC(=O)Cc2cc(OC)ccc2OC)cc(N)c1C#N
> 10 µM: all assays above
